Measurements: patent US20250160718A1, “SYSTEMS AND METHODS FOR HIGH-DENSITY LONG-TERM INTRACELLULAR ELECTROPHYSIOLOGY” (President and Fellows of Harvard College, priority 2022, published 2025)

Tests used:
MDCK cells [1] = system: MDCK cells
Description: This example describes a technique that uses cross-electrode impedance mapping to quantify adhesion or adherence of cells in a cell culture. The terms “adhesion” and “adherence” may be used interchangeably herein.
In this example, ethylenediaminetetraacetic acid (EDTA) was applied to the cells. EDTA is a calcium chelator that removes Ca^2+ needed for integrin proteins to maintain cell adhesion. With EDTA applied, the cells quickly detached over a duration of time of about 50 min. The EDTA was then washed out by adding normal culture media, where the cells re-attached over a duration of time of about 200 min.
FIG. 6b is a data plot showing mean normalized impedance values over time for different regions of a map 601 of an electrode array in the cell culture. FIG. 6c show histograms of the normalized impedance values before, during, and after a washout of EDTA across the electrode array.

MDCK cells [2] = assay: Wound healing assay (electrochemical patterning and cross-electrode impedance mapping of regrowth); format: cell-based, Canine; conditions: 1 μM, over the course of 72 hours; control culture shows regrowth after 72 hours
Source text: This example describes a combined application of cross-electrode impedance mapping and cell patterning for a wound healing assay. Such assays may be used to gauge cell growth rate and metabolism and may be useful for screening drugs affecting these parameters. Compared to the electrochemical patterning described herein, other tools mechanically generate a wound in a cell culture via a mechanical scratch which is both difficult to control and limiting in terms of wound pattern.
In this example, a wound is made in MDCK cells and then growth is mapped in real time. […] These patterns were defined by applying electrode currents of −10 nA for 40 s versus a Ag/AgCl pseudo reference electrode. The regrowth of the culture was then measured using the impedance mapping method.

Structure (SMILES)	duration of time over which the cells detached (MDCK cells [1]; 5 mM EDTA application)	duration of time over which the cells re-attached after washout (MDCK cells [1]; EDTA washed out by adding normal culture media)	regrowth of the culture into the wound (MDCK cells [2])
O=C(O)CN(CCN(CC(=O)O)CC(=O)O)CC(=O)O [EDTA, ethylenediaminetetraacetic acid]	about 50 min	about 200 min	–
C=C1[C@@H](C)[C@H]2[C@H](Cc3ccccc3)NC(=O)[C@]23OC(=O)/C=C/[C@H](O)CCC[C@@H](C)C/C=C/[C@H]3[C@@H]1O [cytochalasin B]	–	–	very little growth
